Assay results published in PMC12223813, “Antiproliferative and Trypanocidal Activity of Ivermectin Bioconjugates” (ACS Omega, 2025).
Where two headings read alike, the source gives them in different places.

What was measured:
[1] = system: human promyelocytic leukemia HL-60 cells; assay: Cytotoxic activity, resazurin cell viability assay; type: cell-based; details: 72 h total (24 h + 48 h with resazurin), mean ± SD of three independent experiments
Experimental: (§1) The trypanocidal and cytotoxic activities of the newly synthesized IVR bioconjugates and their conjugation partners were determined for bloodstream forms of T. brucei brucei and human myeloid HL-60 cells in vitro using the resazurin cell viability assay as previously described.
(§2) Test compounds were assayed at 10-fold dilutions ranging from 100 μM to 1 nM in the presence of 0.9% DMSO. Controls were grown in the culture medium containing only 0.9% DMSO. The assays were cultured in an incubator at 37 °C in a humidified atmosphere containing 5% CO2. After 24 h incubation, 20 μL of 0.5 mM resazurin (prepared in sterile PBS) was added, and the cultures were grown for another 48 h. Then, the proliferation of the cells was determined by measuring the absorbance at 570 nm (test wavelength) and 630 nm (reference wavelength) using a microplate reader.

[2] = system: bloodstream forms of T. b. brucei (427-221a clone); assay: microbe, parasite or virus in culture; details: for GI50: Trypanosoma brucei, 72 h, read-out: T. brucei GI50, bloodstream forms, 72 h total (24 h + 48 h with resazurin), mean ± SD of three independent experiments
Experimental: as §1, §2

[3] = system: MDA-MB-231, human triple-negative breast cancer cell line; assay: Antiproliferative activity, MTT assay; type: cell-based; details: for IC50: Homo sapiens, MDA-MB-231, 72 h, MTT, mean ± SD; for MDA-MB-231 SI: SI = IC50 HaCaT/IC50 MDA-MB-231
Experimental: (§3) Additionally, to assess the selectivity of these compounds toward cancer cells, we included an immortalized keratinocyte cell line from adult human skin (HaCaT) in the antiproliferative activity tests. Doxorubicin served as the reference anticancer drug.
(§4) The culture media were enriched with 10% fetal bovine serum (FBS, Sigma-Aldrich, St. Louis, MO, USA), 20 mM HEPES (Biowest, Nuaillé, France), and antibiotics (100 U/mL penicillin and 100 μg/mL streptomycin) obtained from Gibco (Grand Island, NY, USA). The cells were maintained in a humidified incubator at 37 °C with 5% CO2 until they reached 80–90% confluence, after which they were used for further experiments.
(§5) To assess the cytotoxicity, the cells (0.5 × 10^4/well) were plated in 96-well plates and allowed to adhere for 24 h. The MTT (3-(4,5-dimethylthiazol-2-yl)-2,5-diphenyltetrazolium bromide) assay was used to evaluate the cytotoxic effects of IVR bioconjugates on all tested cell lines. After 24 h incubation, cells were exposed to varying concentrations (1 to 100 μM) of the test compounds for 72 h. Following the treatment, the medium was discarded, and a 0.5 mg mL^–1 MTT solution was added to each well and incubation was continued for another 4 h. Mitochondrial enzyme activity facilitated the formation of formazan crystals, which were subsequently dissolved in DMSO-isopropanol (1:1, v/v), producing a violet-colored solution. A 100 μL aliquot of this solution was transferred to the well, and absorbance was recorded at 570 nm using a MultiscanGo spectrophotometer (ThermoFisher Scientific, Carlsbad, CA, USA).
(§6) Cytotoxicity was quantified by comparing the absorbance of the treated cells to that of untreated controls using the formula: [A]/[B] × 100, where [A] represents the absorbance of the treated sample and [B] corresponds to the absorbance of the control sample. A decrease in MTT levels reflects a decrease in cell viability.

[4] = system: PC3, human metastatic prostate cancer cell line; assay: Antiproliferative activity, MTT assay; type: cell-based; details: for IC50: Homo sapiens, 72 h, MTT, mean ± SD; for PC3 SI: SI = IC50 HaCaT/IC50 PC3
Experimental: as §3, §4, §5, §6

[5] = system: HCT-116, human primary colon cancer cell line; assay: Antiproliferative activity, MTT assay; type: cell-based; details: for IC50: Homo sapiens, HCT-116, 72 h, MTT, mean ± SD; for HCT-116 SI: SI = IC50 HaCaT/IC50 HCT-116
Experimental: as §3, §4, §5, §6

[6] = system: A549, human lung cancer cell line; assay: Antiproliferative activity, MTT assay; type: cell-based; details: for IC50: Homo sapiens, A549, 72 h, MTT, mean ± SD; for A549 SI: SI = IC50 HaCaT/IC50 A549
Experimental: as §3, §4, §5, §6

[7] = system: HaCaT, human immortalized keratinocyte cell line; assay: Cytotoxicity toward normal cells, MTT assay; type: cell-based; details: 72 h, mean ± SD
Experimental: as §3, §4, §5, §6

| Structure (SMILES) | GI50 [1] [µM] | selectivity GI50 ratio ([2]; GI50(HL-60)/GI50(T. brucei)) | IC50 [3] [µM] | MDA-MB-231 SI [3] | IC50 [4] [µM] | PC3 SI [4] | IC50 [5] [µM] | HCT-116 SI [5] | IC50 [6] [µM] | A549 SI [6] | IC50 [7] [µM] | GI50 [2] [µM] | selectivity GI50 ratio [2] |
| --- | --- | --- | --- | --- | --- | --- | --- | --- | --- | --- | --- | --- | --- |
| Cc1ncc([N+](=O)[O-])n1CCO [metronidazole, reference compound] | > 100 | ∼1.0 | 14.9 ± 3.9 | >6.7 | 57 ± 6.1 | >1.8 | > 100 | ∼1.0 | > 100 | ∼1.0 | > 100 |  |  |
| C=C[C@H]1C[N@@]2CC[C@H]1C[C@H]2[C@H](O)c1ccnc2ccc(OC)cc12 [quinine, reference compound] | > 100 |  | 54.4 ± 7 |  | 56.3 ± 7.2 |  | 32.8 ± 3.8 |  | 56.4 ± 3.2 |  | > 100 | 1.1 ± 0.3 |  |
| CCC(C)C1OC2(CCC1C)CC1CC(CC=C(C)C(OC(=O)OCC3OC(n4cc(C)c(=O)[nH]c4=O)CC3N=[N+]=[N-])C(C)C=CC=C3COC4C(O)C(C)=CC(C(=O)O1)C34O)O2 (centres unmarked) [compound 11, Ivermectin–Azidothymidine Conjugate] | 11.1 ± 4.1 | 5.6 | 12.5 ± 1.5 | 2.1 | 8.1 ± 3.2 | 3.2 | 7.7 ± 3.1 | 3.4 | 8.2 ± 1.9 | 3.2 | 26.1 ± 3.3 |  |  |
| O=c1[nH]c(=O)n([C@H]2C[C@H](O)[C@@H](CO)O2)cc1F [floxuridine, reference compound] | > 100 | >45.5 | 22.2 ± 3.4 | 1.1 | 15.7 ± 3.3 | 1.5 | 11.7 ± 4.2 | 2.1 | 26.4 ± 3.8 | 0.9 | 24.3 ± 7.3 | 2.2 ± 0.4 |  |
| COc1cccc2c1C(=O)c1c(O)c3c(c(O)c1C2=O)C[C@@](O)(C(=O)CO)C[C@@H]3O[C@H]1C[C@H](N)[C@H](O)[C@H](C)O1 [doxorubicin, reference compound] |  |  | 1.83 ± 0.1 |  | 0.6 ± 0.02 |  | 0.6 ± 0.02 |  | 0.63 ± 0.2 |  | 0.29 ± 0.1 |  |  |
| C=C[C@H]1CN2CC[C@H]1C[C@H]2[C@H](O)c1ccnc2ccccc12 [cinchonidine, reference compound] | > 100 | >47.6 | > 100 | ∼1.0 | 86.7 ± 3.9 | >1.2 | 87.1 ± 12.1 | >1.1 | > 100 | ∼1.0 | > 100 | 2.1 ± 0.6 |  |
| CC[C@H](C)[C@H]1O[C@]2(CC[C@@H]1C)C[C@@H]1C[C@@H](C/C=C(\C)[C@@H](O[C@H]3C[C@H](OC)[C@@H](O[C@H]4C[C@H](OC)[C@@H](O)[C@H](C)O4)[C@H](C)O3)[C@@H](C)/C=C/C=C3\CO[C@@H]4[C@H](O)C(C)=C[C@@H](C(=O)O1)[C@]34O)O2 [compound 1, Ivermectin] | 30 ± 1.1 |  | 8.7 ± 3.2 | 1.4 | 33.9 ± 6.3 | 0.4 | 9.9 ± 1.1 | 1.3 | 7.2 ± 1.4 | 1.8 | 12.6 ± 4.3 |  | 10.3 |
| C=C(C)C1CCC2(C(=O)OCc3cn(CC(=O)OC4C(C)=CCC5CC(CC6(CCC(C)C(C(C)CC)O6)O5)OC(=O)C5C=C(C)C(O)C6OCC(=CC=CC4C)C56O)nn3)CCC3(C)C(CCC4C5(C)CCC(O)C(C)(C)C5CCC43C)C12 (centres unmarked) [compound 15, Ivermectin–Betulinic Acid Conjugate] | > 100 | >4.6 | > 100 | ∼1.0 | 93.9 ± 6.4 | >1.1 | 70.1 ± 6.4 | >1.4 | > 100 | ∼1.0 | > 100 | 21.9 ± 2.1 |  |
| C=C[C@H]1CN2CC[C@H]1C[C@@H]2[C@@H](OC(=O)O[C@@H]1/C(C)=C/C[C@@H]2C[C@@H](C[C@]3(CC[C@H](C)[C@@H]([C@@H](C)CC)O3)O2)OC(=O)[C@@H]2C=C(C)[C@@H](O)[C@H]3OC/C(=C\C=C\[C@@H]1C)[C@]32O)c1ccnc2ccc(OC)cc12 [compound 5, Ivermectin–Quinidine Conjugate] | 22.9 ± 11.2 | 17.6 | 10.1 ± 1.4 | 1.5 | 12.4 ± 2.1 | 1.2 | 13.8 ± 3.5 | 1.1 | 42.3 ± 0.5 | 0.4 | 14.9 ± 1.6 | 1.3 ± 0.4 |  |
| CC[n+]1c(-c2ccccc2)c2cc(N)ccc2c2ccc(N)cc21 [ethidium bromide, reference compound] | 9.3 ± 2.6 | 202 |  |  |  |  |  |  |  |  |  |  |  |
| C=C[C@H]1C[N@@]2CC[C@H]1C[C@@H]2[C@@H](O)c1ccnc2ccc(OC)cc12 [quinidine, reference compound] | > 100 |  | 76.2 ± 4.6 |  | 86.1 ± 1.2 |  | 67.4 ± 8.9 |  | 55.8 ± 5.3 |  | > 100 | 0.32 ± 0.04 |  |
| C=C[C@H]1C[N@@]2CC[C@H]1C[C@@H]2[C@@H](O)c1ccnc2ccccc12 [cinchonine, reference compound] | > 100 | >58.8 | 65.3 ± 2.8 | >1.5 | 74.3 ± 5.4 | >1.3 | 78.2 ± 5.8 | >1.3 | > 100 | ∼1.0 | > 100 | 1.7 ± 0.6 |  |
| C=C(C)[C@@H]1CC[C@]2(C(=O)O)CC[C@]3(C)[C@H](CC[C@@H]4[C@@]5(C)CC[C@H](O)C(C)(C)[C@@H]5CC[C@]43C)[C@@H]12 [betulinic acid, reference compound] | 42.5 ± 2.5 | 2.8 | 46.5 ± 4.6 | >2.2 | 66.6 ± 2.3 | >1.5 | 80.1 ± 6.1 | >1.2 | 98.1 ± 3.1 | >1.0 | > 100 | 15.4 ± 4.4 |  |
| C[C@H]1[C@H](OC(=O)CCC(=O)O)O[C@@H]2O[C@@]3(C)CC[C@H]4[C@H](C)CC[C@@H]1[C@@]24OO3 [artesunate, reference compound] | 30.8 ± 9 | 8.6 | 12.6 ± 3.9 | 0.5 | 48.5 ± 5.7 | 0.1 | 37.8 ± 4.2 | 0.2 | 24 ± 6.9 | 0.2 | 5.7 ± 0.1 | 3.6 ± 0.2 |  |
| CC[C@H](C)[C@H]1O[C@]2(CC[C@@H]1C)C[C@@H]1C[C@@H](C/C=C(\C)[C@@H](OC(=O)N[C@H]3CCc4cc(OC)c(OC)c(OC)c4-c4ccc(SC)c(=O)cc43)[C@@H](C)/C=C/C=C3\CO[C@@H]4[C@H](O)C(C)=C[C@@H](C(=O)O1)[C@]34O)O2 [compound 8] | 10.1 ± 4.9 | 7.2 | 6.6 ± 0.6 | >15.2 | 85.1 ± 9.8 | >1.2 | 7.5 ± 1.6 | >13.3 | 12.4 ± 2.6 | >8.1 | > 100 | 1.4 ± 0.5 |  |
| Cc1ccc(C(=O)Nc2ccc(S(=O)(=O)O)c3cc(S(=O)(=O)O)cc(S(=O)(=O)O)c23)cc1NC(=O)c1cccc(NC(=O)Nc2cccc(C(=O)Nc3cc(C(=O)Nc4ccc(S(=O)(=O)O)c5cc(S(=O)(=O)O)cc(S(=O)(=O)O)c45)ccc3C)c2)c1 [suramin, reference compound] | > 100 |  |  |  |  |  |  |  |  |  |  | 0.039 ± 0.004 |  |
